Source: ChEMBL document CHEMBL5107993, “Design, synthesis and in vitro biological evaluation of marine phidianidine derivatives as potential anti-inflammatory agents” (Bioorg Med Chem, 2022)
Active and inactive are the calls of the source. The calls are words filed in the database; no cut-off is given here.

Columns and labels:
[1] = Inhibition of IL-17A production in PMA/ionomycin-stimulated mouse EL4 cells at 10 uM measured by ELISA relative to control; format: functional
[2] = Inhibition of IL-17A production in PMA/ionomycin-stimulated mouse EL4 cells measured by ELISA; format: functional, cell-based
EL4 [3] = experiment: Inhibition of IL-17A production in PMA/ionomycin-stimulated mouse EL4 cells at 2 to 10 uM measured […]; format: functional, cell-based; conditions: dose 2-10 µM, DDE = dose-dependent effect
EL4 [4] = experiment: Inhibition of IL-17A production in PMA/ionomycin-stimulated mouse EL4 cells at 2 to 10 uM measured by ELISA; format: functional, cell-based; conditions: dose 2-10 µM, DDE = dose-dependent effect
EL4 [5] = experiment: Inhibition of IL-17A mRNA expression in PMA/ionomycin-stimulated mouse EL4 cells at 10 uM measured by qRT-PCR method; format: functional, cell-based
EL4 [6] = experiment: Inhibition of IL-17F mRNA expression in PMA/ionomycin-stimulated mouse EL4 cells at 10 uM measured by qRT-PCR method; format: functional, cell-based
[7] = Inhibition of IL-17A production in PMA/ionomycin-stimulated mouse EL4 cells at 20 uM measured by ELISA relative to control; format: functional
Th17 [8] = experiment: Inhibition of human Th17 cells differentiation in CD4+ve T cells assessed as decrease in IL-17A production at 2 uM measured by ELISA; format: functional, cell-based
Th17 [9] = experiment: Inhibition of human Th17 cells differentiation in CD4+ve T cells assessed as decrease in IL-17A mRNA expression at 2 uM measured by qRT-PCR method; format: functional, cell-based
EL4 [10] = experiment: Downregulation ofp-STAT3 (Y705) expression in PMA/ionomycin-stimulated mouse EL4 cells measured by western blot analysis; format: functional, cell-based

## COc1cc(-c2nc(-c3ccc(NCCN(C)C)cc3)no2)cc(OC)c1OC
[1]
  inhibition at 10 µM: 83.5%
[2]
  IC50: 5.29 µM
EL4 [3]
  inhibition: Dde
EL4 [4]
  inhibition: Dde
EL4 [5]
  inhibition: Active
EL4 [6]
  inhibition: Active

## NCCNc1ccc(-c2noc(Cc3c[nH]c4ccccc34)n2)cc1
[1]
  inhibition at 10 µM: 21.5%

## O=S(=O)(c1ccccc1)N(CC(F)(F)F)c1ccc(C(O)(C(F)(F)F)C(F)(F)F)cc1 [T091317]
[7]
  inhibition at 20 µM: 52.7%

## CN(C)CCNc1ccc(-c2noc(C34CC5CC(CC(C5)C3)C4)n2)cc1
[1]
  inhibition at 10 µM: 39.6%

## N=C(N)NCCNc1ccc(-c2noc(Cc3c[nH]c4ccccc34)n2)cc1
[1]
  inhibition at 10 µM: 15.2%

## CN(C)CCNc1ccc(-c2noc(Cc3c[nH]c4ccccc34)n2)cc1
[1]
  inhibition at 10 µM: 78.7%
[2]
  IC50: 7.73 µM
EL4 [3]
  inhibition: Dde
EL4 [4]
  inhibition: Dde
EL4 [5]
  inhibition: Active
EL4 [6]
  inhibition: Active
Th17 [8]
  inhibition: Active
Th17 [9]
  inhibition: Active
EL4 [10]
  Activity: Active

## c1ccc2c(Cc3noc(CNC4CCC4)n3)c[nH]c2c1
[1]
  inhibition at 10 µM: 5.8%

## CS(=O)(=O)c1ccc(CNc2ccc(-c3noc(Cc4c[nH]c5ccccc45)n3)cc2)cc1
[1]
  inhibition at 10 µM: 10.3%

## CN(C)CCNCc1nc(Cc2c[nH]c3ccccc23)no1
[1]
  inhibition at 10 µM: 6.1%

## CN(C)CCNc1ccc(-c2noc(-c3ccccc3)n2)cc1
[7]
  inhibition at 20 µM: 22.9%

## CS(=O)(=O)c1ccc(CNC23CCC(c4nc(Cc5c[nH]c6ccccc56)no4)(CC2)C3)cc1
[1]
  inhibition at 10 µM: 8.1%

## Nc1ccc(-c2noc(Cc3c[nH]c4ccccc34)n2)cc1
[1]
  inhibition at 10 µM: 6.4%

## CC(=O)NCCNc1ccc(-c2noc(Cc3c[nH]c4ccccc34)n2)cc1
[1]
  inhibition at 10 µM: 31%

## NC12CCC(c3nc(Cc4c[nH]c5ccccc45)no3)(CC1)C2
[1]
  inhibition at 10 µM: 3%
